The IC50 is the concentration needed to halve the response being measured.

Seven molecules from paper PMC9000864, “Pentacyclic Triterpenoids from Sabia discolor Dunn and Their α-Glycosidase Inhibitory Activities” (Molecules, 2022) can be followed below.

The assay deals with α-glucosidase. The experiment in a line: α-glucosidase inhibition assay (PNPG method). It counts as biochemical, saccharomyces cerevisiae. To be noted: for IC50: absorbance at 405 nm, 37 °C, n = 3, read-out: α-glucosidase inhibitory activity IC50; for α-glycosidase inhibitory activity (in words): compared with positive control acarbose. The text has this: Altogether, dimethyl sulfoxide (DMSO; Beijing Mr. Lai Treasure Company, Beijing, China); phosphate buffer solution (PBS; HyClone); centrifuge tubes, 96 cell culture plates, and other consumables (NEST Biotechnology Co. Ltd., Beijing, China); and α-glucosidase (Sigma Company, St. Louis, MO, USA) from saccharomyces cerevisiae were obtained for this study. […] The absorbance was read using a microplate reader (Varioskan LUX, Thermo, Waltham, MA, USA) at 405 nm. The results were obtained for at least three independent experiments. The inhibitory activity of α-glucosidase was determined by the PNPG method. […] Then, 20 μL of PNPG (2.5 mmol/L) was added, mixed by shock, and incubated in a 37 °C constant-temperature incubator for 15 min. Then, 80 μL of Na2CO3 […] solution was added to stop the reaction and the absorbance was measured by a microplate reader at 405 nm. […] Inhibition rate = [(OD negative − OD blank) − (OD sample − OD background)]/(OD negative − OD blank) × 100%.

Molecules are shown by their SMILES.

`CC1(C)CC[C@]2(CO)CC[C@]3(C)C(=CCC4[C@@]5(C)C(=O)C[C@@H](O)C(C)(C)C5CC[C@]43C)C2C1` (stereo partly drawn) [Compound 1, 3α, 28-dihydroxy-12-oleanene-l-one]: the IC50 stood at 270 ± 49.9 nM and the “α-glycosidase inhibitory activity (in words)” value was “more significant activity than the positive control”. As for `CC1(C)CC[C@]2(C)CC[C@]3(C)C(=CC=C4[C@]5(C)C(CC[C@]43C)C(C)(C)[C@@H](O)C[C@@H]5O)C2C1` (some centres unmarked) [Compound 3, juglangenin A], the IC50 was 110 ± 22.2 nM. On the same count and under the same terms, to `CC1=CCC2(C)CCC3(C)C(CCC4C5(C)C(O)CC(O)C(C)(C)C5CCC43C)C2C1C` (stereo not drawn) [Compound 7, 20-taraxastene-1β, 3β -diol] belongs 560 ± 33.1 nM. Turning to `CC1=CCC2(C)CCC3(C)C(CCC4C5(C)CCC(O)C(C)(C)C5C(O)CC43C)C2C1C` (stereo not drawn) [Compound 8, 6β-pseudotaraxasterol], the half-maximal inhibitory concentration (IC50) is 230 ± 13.5 nM and the “α-glycosidase inhibitory activity (in words)” value is “more significant activity than the positive control”.

`CC1CCC2(C)CCC3(C)C4CCC5C(C)(C)C(O)CCC5(C)C4(C)CCC3(O)C2C1C` (stereo not drawn) [Compound 9, ursan-3β, 13β-diol]: the half-maximal inhibitory concentration (IC50) was 230 ± 30.7 nM and the “α-glycosidase inhibitory activity (in words)” value is “more significant activity than the positive control”. With `CC1=CC[C@]2(C)CC[C@]3(C)C(CCC4[C@@]5(C)CCC(=O)C(C)(C)C5CC[C@]43C)C2[C@H]1C` (some centres unmarked) [Compound 13, ψ-taraxasterone], the 50% inhibitory concentration (IC50) turned out to be 260 ± 38.3 nM. In the case of `C=C(C)[C@@H]1CC[C@]2(CO)CC[C@]3(C)C(CCC4[C@@]5(C)CC[C@H](O)C(C)(C)C5CC[C@]43C)C12` (some centres unmarked) [Compound 15, birch ester alcohol], the IC50 was determined as 90 ± 4.5 nM and the “α-glycosidase inhibitory activity (in words)” value is “best activity”.
